# Experimental data from patent US20210261569A1, “FUSED HETEROCYCLIC DERIVATIVES HAVING SELECTIVE BACE1 INHIBITORY ACTIVITY” (Shionogi & Co., Ltd., priority 2018, published 2021).
# Columns and labels:
# [1] = target: T1, P-gp (MDR1 expressing LLC-PK1 cells) (Homo sapiens, UniProt P08183); assay: P-gp substrate test; format: in vitro ADME; settings: MDR1 expressing LLC-PK1 cells vs parent LLC-PK1 cells
# T1 construct: host or cells: LLC-PK1 (porcine kidney) cells
# Experimental: 1. MDR1 expressing LLC-PK1 cells and its parent cells were routinely cultured in Medium A (Medium 199 (Invitrogen) supplemented with 10% FBS (Invitrogen), gentamycin (0.05 mg/mL, Invitrogen) and hygromycin B (100 μg/mL, Invitrogen)) at 37° C. under 5% CO2/95% 02 gasses. For the transport experiments, these cells were seeded on Transwell (Registered trademark) insert (96-well, pore size: 0.4 μm, Coaster) at a density of 1.4×10^4 cells/insert and added Medium B (Medium 199 supplemented with 10% FBS and gentamycin at 0.05 mg/mL) to the feeder tray. These cells were incubated in a CO2 incubator (5% CO2/95% 02 gasses, 37° C.) and replace apical and basolateral culture medium every 48-72 hr after seeding. These cells were used between 4 and 6 days after seeding. 2. The medium in the culture insert seeded with MDR1 expressing cells or parent cells were removed by aspiration and rinsed by HBSS. The apical side (140 μL) or basolateral side (175 μL) was replaced with transport buffer containing reference substrates and the present invention and then an aliquot (50 μL) of transport buffer in the donor side was collected to estimate initial concentration of reference substrate and the present invention. After incubation for designed time at 37° C., an aliquot (50 μL) of transport buffer in the donor and receiver side were collected. Assay was performed by duplicate or triplicate. 3. Reference substrate and the present invention in the aliquot was quantified by LC/MS/MS.
# Permeated amounts across monolayers of MDR1 expressing and parent cells were determined, and permeation coefficients (Pe) were calculated using Excel 2003 from the following equitation:
# Pe (cm/sec)=Permeated amount (pmol)/area of cell membrane (cm^2)/initial concentration (nM)/incubation time (sec) Where, permeated amount was calculated from permeation concentration (nM, concentration of the receiver side) of the substance after incubation for the defined time (sec) multiplied by volume. (mL) and area of cell membrane was used 0.1433 (cm2). The efflux ratio was calculated using the following equation:
# Efflux Ratio=Basolateral-to-Apical Pe/Apical-to-Basolateral Pe
# The net flux was calculated using the following equation:
# Net flux=Efflux Ratio in MDR1 expressing cells/Efflux Ratio in parent cells
# [2] = Metabolic stability test; format: in vitro ADME; settings: human liver microsomes 0.5 mg protein/mL, NADPH, 37° C.
# Experimental: Using a commercially available pooled human liver microsomes, a compound of the present invention was reacted for a constant time, a remaining rate was calculated by comparing a reacted sample and an unreacted sample, thereby, a degree of metabolism in liver was assessed.
# A reaction was performed (oxidative reaction) at 37° C. for 0 minute or 30 minutes in the presence of 1 mmol/L NADPH in 0.2 mL of a buffer (50 mmol/L Tris-HCl pH 7.4, 150 mmol/L potassium chloride, 10 mmol/L magnesium chloride) containing 0.5 mg protein/mL of human liver microsomes. After the reaction, 50 μL of the reaction solution was added to 100 μL of a methanol/acetonitrile=1/1 (v/v), mixed and centrifuged at 3000 rpm for 15 minutes. The compound of the present invention in the supernatant was quantified by LC/MS/MS or solid phase extraction (SPE)/MS, and a remaining amount of the compound of the present invention after the reaction was calculated, letting a compound amount at 0 minute reaction time to be 100%.
# [3] = target: T2, human ether-a-go-go related gene (hERG) channel (Homo sapiens, UniProt Q12809); assay: hERG test (whole cell patch clamp, QPatch); format: cell-based; settings: CHO cells expressing hERG, tail peak current
# T2 construct: expressed in transfected cells; host or cells: CHO cells
# From the text: For the purpose of assessing risk of an electrocardiogram QT interval prolongation, effects on delayed rectifier K+ current (IKr), which plays an important role in the ventricular repolarization process of the compound of the present invention, was studied using CHO cells expressing human ether-a-go-go related gene (hERG) channel.
# A cell was retained at a membrane potential of −80 mV by whole cell patch clamp method using an automated patch clamp system (QPatch; Sophion Bioscience A/S). After application of leak potential at −50 mV, IKr induced by depolarization pulse stimulation at +20 mV for 2 seconds and, further, repolarization pulse stimulation at −50 mV for 2 seconds was recorded.
# After the generated current was stabilized, extracellular solution (NaCl: 145 mmol/L, KCl: 4 mmol/L, CaCl2:2 mmol/L MgCl2:1 mmol/L, 1 mmol/L, HEPES (4-(2-hydroxyethyl)-1-piperazineethanesulfonic acid: 10 mmol/L, glucose:10 mmol/L pH=7.4) in which the compound of the present invention have been dissolved at an objective concentration was applied to the cell under the room temperature condition for 10 minutes. From the recording IKr, an absolute value of the tail peak current was measured based on the current value at the resting membrane potential using an analysis software (QPatch assay software; Sophion Bioscience A/S). Further, the % inhibition relative to the tail peak current before application of the compound of the present invention was calculated, and compared with the vehicle-applied group (0.1% dimethyl sulfoxide solution) to assess influence of the compound of the present invention on IKr.
# T1 sequence (P08183 whole entry): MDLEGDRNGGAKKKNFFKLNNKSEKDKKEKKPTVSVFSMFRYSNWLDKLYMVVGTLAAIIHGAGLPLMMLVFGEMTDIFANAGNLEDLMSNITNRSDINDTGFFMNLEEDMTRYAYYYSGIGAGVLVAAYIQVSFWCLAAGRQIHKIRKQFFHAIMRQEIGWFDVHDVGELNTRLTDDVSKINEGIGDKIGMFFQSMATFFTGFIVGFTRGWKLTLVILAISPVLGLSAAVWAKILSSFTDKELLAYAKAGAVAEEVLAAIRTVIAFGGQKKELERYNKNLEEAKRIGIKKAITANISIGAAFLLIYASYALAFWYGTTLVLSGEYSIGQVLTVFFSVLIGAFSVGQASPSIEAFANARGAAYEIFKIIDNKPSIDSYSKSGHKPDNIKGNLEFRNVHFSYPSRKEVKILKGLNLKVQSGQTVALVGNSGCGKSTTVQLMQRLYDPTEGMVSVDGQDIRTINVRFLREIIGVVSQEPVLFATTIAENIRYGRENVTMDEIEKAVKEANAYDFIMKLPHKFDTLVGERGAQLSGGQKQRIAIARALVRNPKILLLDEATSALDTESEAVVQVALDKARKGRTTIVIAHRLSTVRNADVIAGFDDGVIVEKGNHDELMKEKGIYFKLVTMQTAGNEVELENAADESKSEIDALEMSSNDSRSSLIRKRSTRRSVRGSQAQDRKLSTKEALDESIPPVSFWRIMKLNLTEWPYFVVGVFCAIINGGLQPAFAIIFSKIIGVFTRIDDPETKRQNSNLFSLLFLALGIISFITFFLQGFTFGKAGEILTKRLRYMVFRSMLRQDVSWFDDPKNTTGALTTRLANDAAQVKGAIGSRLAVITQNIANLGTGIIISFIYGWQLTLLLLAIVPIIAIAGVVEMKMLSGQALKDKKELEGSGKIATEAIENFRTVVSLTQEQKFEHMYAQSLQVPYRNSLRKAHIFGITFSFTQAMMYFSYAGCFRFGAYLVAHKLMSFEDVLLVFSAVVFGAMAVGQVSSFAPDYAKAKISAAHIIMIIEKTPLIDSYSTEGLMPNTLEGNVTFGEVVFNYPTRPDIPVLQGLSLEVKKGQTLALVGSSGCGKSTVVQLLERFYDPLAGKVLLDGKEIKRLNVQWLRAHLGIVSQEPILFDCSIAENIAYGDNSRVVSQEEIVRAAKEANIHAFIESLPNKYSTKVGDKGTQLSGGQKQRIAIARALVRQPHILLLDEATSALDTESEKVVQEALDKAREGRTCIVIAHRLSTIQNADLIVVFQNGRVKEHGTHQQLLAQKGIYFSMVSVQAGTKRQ
# T2 sequence (Q12809 whole entry): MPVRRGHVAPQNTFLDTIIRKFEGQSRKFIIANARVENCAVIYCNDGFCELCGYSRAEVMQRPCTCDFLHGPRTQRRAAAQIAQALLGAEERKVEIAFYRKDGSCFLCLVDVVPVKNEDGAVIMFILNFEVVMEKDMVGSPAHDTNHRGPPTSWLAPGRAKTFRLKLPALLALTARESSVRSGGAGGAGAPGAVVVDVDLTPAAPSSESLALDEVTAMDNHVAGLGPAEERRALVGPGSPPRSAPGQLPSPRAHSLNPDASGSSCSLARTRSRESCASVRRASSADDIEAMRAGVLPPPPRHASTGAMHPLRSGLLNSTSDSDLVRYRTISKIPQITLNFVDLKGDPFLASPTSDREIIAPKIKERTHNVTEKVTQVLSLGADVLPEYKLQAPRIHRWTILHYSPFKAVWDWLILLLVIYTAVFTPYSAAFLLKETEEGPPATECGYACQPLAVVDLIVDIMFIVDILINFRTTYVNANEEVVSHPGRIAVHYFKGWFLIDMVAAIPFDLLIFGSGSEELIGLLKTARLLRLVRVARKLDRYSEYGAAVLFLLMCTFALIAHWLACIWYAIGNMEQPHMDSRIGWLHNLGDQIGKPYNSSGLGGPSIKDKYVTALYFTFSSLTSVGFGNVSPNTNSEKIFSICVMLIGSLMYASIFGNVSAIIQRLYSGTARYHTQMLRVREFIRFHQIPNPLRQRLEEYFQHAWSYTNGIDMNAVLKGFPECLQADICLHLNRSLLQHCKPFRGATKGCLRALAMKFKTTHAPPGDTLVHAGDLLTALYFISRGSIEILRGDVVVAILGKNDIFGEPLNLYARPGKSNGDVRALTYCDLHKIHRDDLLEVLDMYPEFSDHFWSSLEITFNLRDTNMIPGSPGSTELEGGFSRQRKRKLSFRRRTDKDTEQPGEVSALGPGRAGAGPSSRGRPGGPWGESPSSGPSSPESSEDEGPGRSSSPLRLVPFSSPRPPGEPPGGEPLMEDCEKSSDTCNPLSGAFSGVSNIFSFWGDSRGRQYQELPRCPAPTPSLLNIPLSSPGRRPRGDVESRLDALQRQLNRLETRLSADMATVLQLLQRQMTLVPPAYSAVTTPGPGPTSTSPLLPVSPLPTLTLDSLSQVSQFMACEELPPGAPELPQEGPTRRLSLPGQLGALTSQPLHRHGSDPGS
P-gp ER ratio [1],Remaining rate (%) at 30 min [2] [%],Compound,hERG inhibition (%) at 3 μM [3] [%]
2.1,102,NC1=N[C@](CF)(c2cc(NC(=O)c3cnc(OCF)cn3)ccc2F)[C@H]2[C@H](CF)OC[C@H]2O1 [Compound I-114],12.4
3.3,65,CC1(C)OC[C@H]2[C@@H]1OC(N)=N[C@]2(CF)c1cc(NC(=O)c2cnc(OCF)cn2)ccc1F [Compound I-096],19.4
3,93,NC1=N[C@](CF)(c2cc(NC(=O)c3cnc(OCF)cn3)ccc2F)[C@H]2[C@H](CCF)OC[C@H]2O1 [Compound I-115],9.9
5.3,91,NC1=N[C@](CF)(c2cc(NC(=O)c3cnc(OCF)cn3)ccc2F)[C@H]2CO[C@@H](CF)[C@H]2O1 [Compound I-112],5
